# According to patent US6368618B1, “Composition and method for enhanced transdermal absorption of nonsteroidal anti-inflammatory drugs” (The University of Georgia Research Foundation, Inc., priority 1999, dated 2002):
# Experiments:
# Assay type in all cases: physicochemical
# [1] = Melt state of ibuprofen in aqueous isopropyl alcohol (optical microscope); design: key: S: solid crystals present (FIG. 1-B); O: no crystals present (FIG. 1-A); conditions: 25° C.
# From the text: The total weight of each mixture was 10 g.
# FIG. 1-A represents a two phase melt system with homogeneous oil and aqueous phases, and FIG. 1-B represents a system where complete melt is not achieved. […] (FIG. 1-B). […] (FIG. 1-A).
# [2] = Melt state of ibuprofen and thymol in aqueous isopropyl alcohol; conditions: racemic ibuprofen in place of S(+)-ibuprofen, with thymol and aqueous IPA, samples as in Table 3, 25° C.
# Description: (10 g total weight). Replicate samples of these mixtures were prepared at 25° C. and were stored at 25, 15, and 4° C. for three months. During storage, the melt states of the composition were examined weekly using an optical microscope. The results are shown in Table 3, where O and S denote systems described as in FIG. 1-A and 1-B, respectively, at the corresponding temperature. […] The lower the SI:T ratio and the higher the alcohol content, the lower the melting range of the solid components in the mixture, as shown by the attainment of the melt state. […] Thus the use of thymol and aqueous isopropyl alcohol in combination allows the preparation of two phase melt systems with the highest possible SI:T ratio and the lowest isopropyl alcohol content at 25° C.
# [3] = Composition of the oil phase of two phase melt systems by GC-MS; conditions: oil phase of dispersion with 15% isopropyl alcohol, no thymol
# Description: The composition of the oil phase formed in the dispersion containing 15% isopropyl alcohol was determined by the gas chromatrography-mass spectrometry (GC-MS) analysis.
# After ultracentrifugation at 20,000 rpm for 30 minutes at 25° C. of selected two phase melt systems (Systems I, II, III and IV as shown in Table 3) that had been stored at 25° C. for three months, a portion of the oil phase of these melt systems was removed using a micro-sampling tube and was weighed accurately by a taring method.
# [4] = Melt state of physical mixtures of S(+)-ibuprofen and thymol; conditions: physical mixtures with thymol
# From the text: The melt states of the two compounds were then examined weekly for 3 months using an optical microscope.
"Melt state ([1]; racemic ibuprofen in place of S(+)-ibuprofen, samples as in Table 2, even at 25% IPA or higher)",SMILES,Melt state [2],"Melt state ([1]; 5% S(+)-ibuprofen, 5% IPA, pH 4.0 acetate buffer, 3 months)","Melt state ([1]; 5% S(+)-ibuprofen, 10% IPA, pH 4.0 acetate buffer, 3 months)","Melt state ([1]; 5% S(+)-ibuprofen, 15% IPA, pH 4.0 acetate buffer, 3 months)","Melt state ([1]; 5% S(+)-ibuprofen, 20% IPA, pH 4.0 acetate buffer, 3 months)",Melt state ([1]; isopropyl alcohol 10% or less by weight of total composition),Melt state ([1]; isopropyl alcohol 15% or higher),concentration of S(+)-ibuprofen in the oil [3],"Melt state ([4]; SI:T ratios 5:5 to 6:4 (w:w), ambient temperature (20-25° C.))","Melt state ([4]; SI:T ratios outside 5:5 to 6:4 (1:9 to 9:1 tested), 25° C.)"
complete melt was never achieved,"CC(C)Cc1ccc(C(C)C(=O)O)cc1 (racemic) [racemic ibuprofen, a-methyl-4-(2-methylpropyl) benzene-acetic acid]",complete melt of the solids was never achieved,–,–,–,–,–,–,–,–,–
–,"CC(C)Cc1ccc([C@H](C)C(=O)O)cc1 [S(+)-ibuprofen, a-methyl-4-(2-methylpropyl) benzene-acetic acid]",–,S,S,O,O,did not completely melt,completely transformed into an oil,68.4 % (w:w),spontaneously formed a homogeneous oil,complete melting of the compounds did not occur
